ChEMBL document CHEMBL5528035, “Design, Synthesis, and Biological Evaluation for First GPX4 and CDK Dual Inhibitors” (J Med Chem, 2024)
The source made the active and inactive calls. The rule behind the calls is not given here.

Assays:
[1] = target: CDK2/Cyclin A2 (Homo sapiens) (UniProt P24941+P20248); experiment: Inhibition of CDK2/CyclinA2 (unknown origin) at 100 nM preincubated for 15 mins followed by substrate and ATP addition incubated for 10 mins by ADP-glo luminescent assay relative to control; format: protein-complex assay; settings: time 25.0 min
[2] = target: CDK6/cyclin D3 (Homo sapiens) (UniProt P30281+Q00534); experiment: Inhibition of CDK6/CyclinD3 (unknown origin) at 100 nM preincubated for 15 mins followed by substrate and ATP addition incubated for 10 mins by ADP-glo luminescent assay relative to control; format: protein-complex assay; settings: time 25.0 min
[3] = Intrinsic clearance in human liver microsomes in presence of NADPH incubated for 5 to 45 mins by LC/MS analysis; format: ADME, Microsome; settings: time 5-45 min, read-out: CLH
[4] = AUC (0 to t) in Sprague-Dawley rat at 10 mg/kg,iv administration measured upto 24 hrs by LC-MS/MS analysis; format: ADME, organism-based; settings: in vivo
[5] = target: CDK4/Cyclin D3 (Homo sapiens, UniProt P11802); experiment: Inhibition of CDK4/CyclinD3 (unknown origin) preincubated for 15 mins followed by substrate and ATP addition incubated for 10 mins by ADP-glo luminescent assay; format: protein-complex assay
[6] = target: CDK6/cyclin D3 (Homo sapiens, UniProt Q00534); experiment: Inhibition of CDK6/CyclinD3 (unknown origin) preincubated for 15 mins followed by substrate and ATP addition incubated for 10 mins by ADP-glo luminescent assay; format: protein-complex assay
[7] = tested on: MDA-MB-231; experiment: Induction of ferroptosis in human MDA-MB-231 cells assessed as increase in intracellular lipid peroxide level incubated for 24 hrs by […] staining based confocal laser scanning microscopic analysis; format: functional, cell-based
[8] = tested on: HCT-116; experiment: Induction of ferroptosis in human HCT-116 cells assessed as increase in intracellular lipid peroxide level incubated for 24 hrs by […] staining based confocal laser scanning microscopic analysis; format: functional, cell-based
[9] = tested on: MDA-MB-231; experiment: Induction of ferroptosis in human MDA-MB-231 cells assessed as increase in intracellular lipid peroxide level incubated for 24 hrs by flow cytometric analysis; format: functional, cell-based
[10] = tested on: HCT-116; experiment: Induction of ferroptosis in human HCT-116 cells assessed as increase in intracellular lipid peroxide level incubated for 24 hrs by flow cytometric analysis; format: functional, cell-based
[11] = tested on: HCT-116; experiment: Induction of ferroptosis in human HCT-116 cells assessed as increase in intracellular ferrous ion level at 0.5 to 2 uM incubated for 24 hrs by ferroOrange probe based flow cytometric analysis; format: functional, cell-based; settings: dose 0.5-2 µM
[12] = tested on: MDA-MB-231; experiment: Induction of ferroptosis in human MDA-MB-231 cells assessed as increase in intracellular ferrous ion level at 0.5 to 2 uM incubated for 24 hrs by ferroOrange probe based confocal laser scanning microscopic analysis; format: functional, cell-based; settings: dose 0.5-2 µM
[13] = tested on: HCT-116; experiment: Induction of ferroptosis in human HCT-116 cells assessed as downregulation of GPX4 expression incubated for 24 hrs by Western blotting analysis; format: functional, cell-based
[14] = tested on: HCT-116; experiment: Induction of cell cycle arrest in human HCT-116 cells assessed as accumulation of cells at G1 phase at 0.5 to 2 uM incubated for 24 hrs by RNase/PI staining based flow cytometric analysis; format: functional; settings: dose 0.5-2 µM
[15] = tested on: MDA-MB-231; experiment: Induction of cell cycle arrest in human MDA-MB-231 cells assessed as downregulation of phoshorylated Rb at 0.5 to 2 uM incubated for 24 hrs by Western blotting analysis; format: functional, cell-based; settings: dose 0.5-2 µM
[16] = tested on: MDA-MB-231; experiment: Induction of cell cycle arrest in human MDA-MB-231 cells assessed as downregulation of E2F1 expression at 0.5 to 2 uM incubated for 24 hrs by Western blotting analysis; format: functional, cell-based; settings: dose 0.5-2 µM
[17] = tested on: HCT-116; experiment: Induction of cell cycle arrest in human HCT-116 cells assessed as downregulation of E2F1 expression at 0.5 to 2 uM incubated for 24 hrs by Western blotting analysis; format: functional, cell-based; settings: dose 0.5-2 µM
[18] = tested on: HCT-116; experiment: Induction of apoptosis in human HCT-116 cells incubated for 24 hrs by annexin-V-FITC/PI staining based flow cytometric analysis; format: functional, cell-based
[19] = tested on: MDA-MB-231; experiment: Induction of apoptosis in human MDA-MB-231 cells assessed as downregulation of BCL-2 expression at 0.5 to 2 uM incubated for 24 hrs by Western blotting analysis; format: functional, cell-based; settings: dose 0.5-2 µM
[20] = tested on: MDA-MB-231; experiment: Induction of apoptosis in human MDA-MB-231 cells assessed as upregulation of Bax expression at 0.5 to 2 uM incubated for 24 hrs by Western blotting analysis; format: functional, cell-based; settings: dose 0.5-2 µM
[21] = tested on: MDA-MB-231; experiment: Antitumor activity against human MDA-MB-231 cells xenografted in BALB/c mouse assessed as tumor growth inhibition at 40 mg/kg,ip administrated for 21 consecutive days; format: functional; settings: read-out: TGI
[22] = Toxicity in BALB/c mouse xenografted with human MDA-MB-231 cells assessed as change in body weight at 20 mg/kg,ip administrated for 21 consecutive days; format: organism-based; settings: in vivo
[23] = Toxicity in BALB/c mouse xenografted with human MDA-MB-231 cells assessed as morphological change in heart at 20 mg/kg,ip administrated for 21 consecutive days by hematoxylin and eosin staining based analysis; format: organism-based; settings: in vivo
[24] = Toxicity in BALB/c mouse xenografted with human MDA-MB-231 cells assessed as morphological change in heart at 40 mg/kg,ip administrated for 21 consecutive days by hematoxylin and eosin staining based analysis; format: organism-based; settings: in vivo
[25] = Toxicity in BALB/c mouse xenografted with human MDA-MB-231 cells assessed as morphological change in liver at 40 mg/kg,ip administrated for 21 consecutive days by hematoxylin and eosin staining based analysis; format: organism-based; settings: in vivo
[26] = Toxicity in BALB/c mouse xenografted with human MDA-MB-231 cells assessed as morphological change in spleen at 20 mg/kg,ip administrated for 21 consecutive days by hematoxylin and eosin staining based analysis; format: organism-based; settings: in vivo
[27] = Toxicity in BALB/c mouse xenografted with human MDA-MB-231 cells assessed as morphological change in lung at 20 mg/kg,ip administrated for 21 consecutive days by hematoxylin and eosin staining based analysis; format: organism-based; settings: in vivo
[28] = Toxicity in BALB/c mouse xenografted with human MDA-MB-231 cells assessed as morphological change in kidney at 40 mg/kg,ip administrated for 21 consecutive days by hematoxylin and eosin staining based analysis; format: organism-based; settings: in vivo
[29] = tested on: MDA-MB-231; experiment: Antitumor activity against human MDA-MB-231 cells xenografted in BALB/c mouse assessed as decrease in GPX4 expression at 20 mg/kg,ip administrated for 21 consecutive days by immunohistochemistry; format: functional, organism-based
[30] = tested on: MDA-MB-231; experiment: Antitumor activity against human MDA-MB-231 cells xenografted in BALB/c mouse assessed as decrease in phosphorylated Rb expression at 20 mg/kg,ip administrated for 21 consecutive days by immunohistochemistry; format: functional, organism-based
[31] = tested on: MDA-MB-231; experiment: Antitumor activity against human MDA-MB-231 cells xenografted in BALB/c mouse assessed as decrease in phosphorylated Rb expression at 40 mg/kg,ip administrated for 21 consecutive days by immunohistochemistry; format: functional, organism-based
[32] = tested on: MDA-MB-231; experiment: cells; settings: Homo sapiens, MDA-MB-231, 48 h
Description: Antiproliferative activity against human MDA-MB-231 cells assessed as inhibition of cell growth incubated for 48 hrs by CCK-8 assay

[33] = tested on: HCT-116; experiment: cells; settings: Homo sapiens, HCT-116, 48 h
Description: Antiproliferative activity against human HCT-116 cells assessed as inhibition of cell growth incubated for 48 hrs by CCK-8 assay

[34] = tested on: A549; experiment: cells; settings: Homo sapiens, A549, 48 h
Description: Antiproliferative activity against human A549 cells assessed as inhibition of cell growth incubated for 48 hrs by CCK-8 assay

[35] = tested on: HepG2; experiment: cells; settings: Homo sapiens, HepG2, 48 h
Description: Antiproliferative activity against human HepG2 cells assessed as inhibition of cell growth incubated for 48 hrs by CCK-8 assay

CDK4/Cyclin D3, sequence (P11802 whole entry): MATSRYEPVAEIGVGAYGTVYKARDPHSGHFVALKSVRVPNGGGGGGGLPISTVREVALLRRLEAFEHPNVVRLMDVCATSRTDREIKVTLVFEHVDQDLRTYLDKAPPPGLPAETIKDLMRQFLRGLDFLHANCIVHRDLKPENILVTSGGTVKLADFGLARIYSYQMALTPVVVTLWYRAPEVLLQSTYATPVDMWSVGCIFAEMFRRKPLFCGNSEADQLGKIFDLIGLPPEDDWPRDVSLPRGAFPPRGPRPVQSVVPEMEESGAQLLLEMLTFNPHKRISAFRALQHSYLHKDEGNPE
CDK4/Cyclin D3, sequence (P30281 whole entry, further chain): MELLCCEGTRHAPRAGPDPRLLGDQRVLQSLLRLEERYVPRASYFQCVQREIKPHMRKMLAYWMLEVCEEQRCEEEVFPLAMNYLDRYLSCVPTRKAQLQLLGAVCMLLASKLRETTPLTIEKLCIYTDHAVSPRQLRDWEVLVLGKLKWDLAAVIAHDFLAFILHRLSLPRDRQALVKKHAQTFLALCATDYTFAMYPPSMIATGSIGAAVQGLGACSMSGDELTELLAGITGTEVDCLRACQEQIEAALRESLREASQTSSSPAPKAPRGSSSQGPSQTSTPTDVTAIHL
CDK6/cyclin D3, sequence (P30281 whole entry): as the sequence (P30281 whole entry, further chain) above
CDK6/cyclin D3, sequence (Q00534 whole entry): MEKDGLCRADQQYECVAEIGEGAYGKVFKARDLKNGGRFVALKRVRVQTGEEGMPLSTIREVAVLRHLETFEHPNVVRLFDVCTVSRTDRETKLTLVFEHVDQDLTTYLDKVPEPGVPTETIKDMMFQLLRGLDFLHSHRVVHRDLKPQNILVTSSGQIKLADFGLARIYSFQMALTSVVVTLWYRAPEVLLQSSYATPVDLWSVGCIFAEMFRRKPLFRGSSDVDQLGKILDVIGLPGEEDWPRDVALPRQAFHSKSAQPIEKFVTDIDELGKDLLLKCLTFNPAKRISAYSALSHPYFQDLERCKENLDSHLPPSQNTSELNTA

With COc1ccc2c(c1)NC(=O)/C2=C1\Nc2ccccc2\C1=N/OCCCNC(=O)CCn1cc(COc2ccc(N(C(=O)CCl)C(C(=O)NCCc3ccccc3)c3cccs3)cc2Cl)nn1 (stereo not given) the inhibition [1] was 10.7%, the inhibition [2] was 51.8% and the CLint scaled [3] was 27.3 mL/min/kg. For the same compound, the AUC(0-t) at 24 h [4] was 15700 ng·h/mL, the IC50 [5] was 191 nM and the IC50 [6] was 68.1 nM. For the same compound, the Activity [7] was “Dose-Dependent Effect”, the Activity [8] was “Dose-Dependent Effect” and the Activity [9] was “Dose-Dependent Effect”. The Activity [10] was “Dose-Dependent Effect”, the Activity [11] was “Active” and the Activity [12] was “Active”. For the same compound, the Activity [13] was “Dose-Dependent Effect”, the Activity [14] was “Active” and the Activity [15] was “Active”. The Activity [16] was “Active”, the Activity [17] was “Active” and the Activity [18] was “Dose-Dependent Effect”. The Activity [19] was “Active”, the Activity [20] was “Active” and the inhibition in vivo at 40 mg/kg [21] was 83.3%. For the same compound, the Activity [22] was “Non-Toxic”, the Activity [23] was “Non-Toxic” and the Activity [24] was “Non-Toxic”. For the same compound, the Activity [25] was “Non-Toxic”, the Activity [26] was “Non-Toxic” and the Activity [27] was “Non-Toxic”. The Activity [28] was “Non-Toxic”, the Activity [29] was “Active” and the Activity [30] was “Active”. For the same compound, the Activity [31] was “Active”, the IC50 [32] was 800 nM and the IC50 [33] was 750 nM. It also gave an IC50 [34] of 1020 nM and an IC50 [35] of 1490 nM.
